Test results from the NIST ThermoML archive (doi:10.1016/j.jct.2010.02.015).
Where “and” joins values, the source holds several entries; their conditions need not be identical. Equal entries are not always repeated.

Settings: Gas, Buoyancy - hydrostatic balance with magnetic suspension - two sinkers

[He] [helium]
Settings | mass density
400 K, 37939 kPa | 40.5581 kg/m3
400 K, 37940 kPa | 40.5595 kg/m3
400 K, 37941 kPa | 40.56 kg/m3
400 K, 37942 kPa | 40.5606 kg/m3
425 K, 7875.4 kPa | 8.7027 kg/m3
425 K, 7875.6 kPa | 8.703 kg/m3
425 K, 7875.7 kPa | 8.703 kg/m3
425 K, 7875.8 kPa | 8.7031 kg/m3
425 K, 11516 kPa | 12.586 kg/m3 and 12.5859 kg/m3
425 K, 11517 kPa | 12.5867 kg/m3 and 12.5863 kg/m3
425 K, 15540 kPa | 16.7803 kg/m3
425 K, 15541 kPa | 16.7806 kg/m3 and 16.7809 kg/m3
425 K, 19133 kPa | 20.4427 kg/m3 and 20.4422 kg/m3
425 K, 19134 kPa | 20.4431 kg/m3
425 K, 25118 kPa | 26.3791 kg/m3
425 K, 25119 kPa | 26.3797 kg/m3
425 K, 25120 kPa | 26.3801 kg/m3 and 26.3808 kg/m3
425 K, 31604 kPa | 32.5927 kg/m3
425 K, 31605 kPa | 32.5929 kg/m3
425 K, 31606 kPa | 32.5939 kg/m3
425 K, 31607 kPa | 32.5953 kg/m3
425 K, 37906 kPa | 38.4268 kg/m3
425 K, 37908 kPa | 38.4278 kg/m3
425 K, 37909 kPa | 38.4293 kg/m3
425 K, 37913 kPa | 38.4326 kg/m3
450 K, 4775.3 kPa | 5.0371 kg/m3
450 K, 4775.4 kPa | 5.0373 kg/m3 and 5.0374 kg/m3
450 K, 7655.9 kPa | 8.0083 kg/m3
450 K, 7656 kPa | 8.0084 kg/m3 and 8.0085 kg/m3
450 K, 11907 kPa | 12.3041 kg/m3 [middle of 4 runs]
450 K, 15358 kPa | 15.7171 kg/m3 [middle of 4 runs]
450 K, 18965 kPa | 19.2155 kg/m3
450 K, 18966 kPa | 19.2158 kg/m3 and 19.2164 kg/m3 and 19.2154 kg/m3
450 K, 24940 kPa | 24.8633 kg/m3 and 24.8624 kg/m3
450 K, 24941 kPa | 24.8636 kg/m3
450 K, 24943 kPa | 24.8658 kg/m3
450 K, 31394 kPa | 30.7672 kg/m3
450 K, 31395 kPa | 30.7683 kg/m3
450 K, 31396 kPa | 30.7693 kg/m3
450 K, 31398 kPa | 30.7705 kg/m3
450 K, 37608 kPa | 36.2728 kg/m3
450 K, 37610 kPa | 36.274 kg/m3
450 K, 37611 kPa | 36.2757 kg/m3
450 K, 37613 kPa | 36.2772 kg/m3
475 K, 4812.4 kPa | 4.813 kg/m3 and 4.8133 kg/m3 and 4.8131 kg/m3
475 K, 7937.7 kPa | 7.8707 kg/m3
475 K, 7937.9 kPa | 7.871 kg/m3
475 K, 7938 kPa | 7.8709 kg/m3
475 K, 11474 kPa | 11.2698 kg/m3 and 11.2694 kg/m3
475 K, 11475 kPa | 11.2697 kg/m3 and 11.2696 kg/m3
475 K, 15102 kPa | 14.6905 kg/m3 and 14.6903 kg/m3 and 14.69 kg/m3
475 K, 15103 kPa | 14.6908 kg/m3
475 K, 18995 kPa | 18.29 kg/m3 and 18.2901 kg/m3 and 18.2895 kg/m3
475 K, 18996 kPa | 18.2908 kg/m3
475 K, 25698 kPa | 24.3237 kg/m3 and 24.3233 kg/m3
475 K, 25699 kPa | 24.3246 kg/m3
475 K, 31116 kPa | 29.0563 kg/m3
475 K, 31118 kPa | 29.0576 kg/m3
475 K, 31119 kPa | 29.0583 kg/m3
475 K, 31122 kPa | 29.0604 kg/m3
475 K, 37990 kPa | 34.8852 kg/m3
475 K, 37992 kPa | 34.8873 kg/m3
475 K, 37994 kPa | 34.8888 kg/m3
475 K, 37996 kPa | 34.891 kg/m3
499.99 K, 37868 kPa | 33.2206 kg/m3
500 K, 4928 kPa | 4.6849 kg/m3 and 4.6846 kg/m3 and 4.685 kg/m3
500 K, 7887.1 kPa | 7.4404 kg/m3 and 7.4403 kg/m3
500 K, 7887.3 kPa | 7.4406 kg/m3
500 K, 11580 kPa | 10.8213 kg/m3 and 10.8221 kg/m3 and 10.8212 kg/m3
500 K, 11581 kPa | 10.8215 kg/m3
500 K, 15421 kPa | 14.2721 kg/m3 and 14.2719 kg/m3
500 K, 15422 kPa | 14.2732 kg/m3 and 14.2727 kg/m3
500 K, 19581 kPa | 17.9371 kg/m3 and 17.9369 kg/m3
500 K, 19583 kPa | 17.9388 kg/m3
500 K, 25162 kPa | 22.7413 kg/m3
500 K, 25163 kPa | 22.7419 kg/m3
500 K, 25166 kPa | 22.7445 kg/m3
500 K, 30651 kPa | 27.3437 kg/m3
500 K, 30652 kPa | 27.3446 kg/m3
500 K, 30653 kPa | 27.3454 kg/m3
500 K, 30654 kPa | 27.3459 kg/m3
500 K, 37864 kPa | 33.2185 kg/m3
500 K, 37865 kPa | 33.2203 kg/m3
500 K, 37870 kPa | 33.2239 kg/m3
